Measurements published in patent publication US20170165374A1, “COMPOSITIONS AND METHODS FOR TREATING BACTERIAL INFECTIONS” (Insmed, Inc., priority 2015, published 2017).
Where a name gives a salt, the structure may show the parent alone.

Assays:
Assay type in all cases: cell-based
[1] = system: M. abscessus type strain 19977; assay: Intracellular CFU in M. abscessus infected THP-1 cells (THP-1 NTM model), strain 19977
Protocol: (§1) THP-1 cells were seeded in PMA and cultured for 48 hours, exposed to M. abscessus (type strain 19977 or clinical isolate Stanford A or NIH26) at multiplicity of infection (MOI) of approx. 2 for 1 hour followed by incubation with […] amikacin sulfate for 23 hours to reduce the extracellular NTM population. Liposomal amikacin formulations were added at 16, 32, 64, and 128 μg/mL of active concentration and incubated for 24 hours at 37° C. At the end of four 24 hour treatment cycles, cells were washed, lysed, serially diluted, plated, and incubated at 37° C. for 4 days to determine final intracellular CFU counts. Formulations were loaded with streptomycin and tested against the M. abscessus strains 19977 and Stanford A. Results are shown in Table 8.

[2] = system: M. abscessus clinical isolate Stanford A; assay: Intracellular CFU in M. abscessus infected THP-1 cells (THP-1 NTM model), Stanford A
Protocol: as §1

[3] = system: M. abscessus clinical isolate NIH26; assay: Intracellular CFU in M. abscessus infected THP-1 cells (THP-1 NTM model), NIH26; conditions: NIH 26, 128 μg/mL amikacin
Protocol: as §1, with “counts.” for “counts. Formulations were loaded with streptomycin and tested against the M. abscessus strains 19977 and Stanford A. Results are shown in Table 8.”

[4] = 128 μg/mL amikacin, vs pretreatment
[5] = 128 μg/mL streptomycin sulfate, vs pretreatment

| Compound | In vitro killing (CFU remaining after 96 h treatment with 128 μg/mL ami-in THP-1 NTM model) ([1]; 128 μg/mL amikacin) [CFU] | In vitro killing (additional % CFU killed compared to pretreatment after 96 h treatment with 128 μg/mL ami in THP-1 NTM model) [1, 4] [%] | In vitro killing (CFU remaining after 96 h treatment with 128 μg/mL ami-in THP-1 NTM model) ([2]; 128 μg/mL amikacin) [CFU] | In vitro killing (additional % CFU killed compared to pretreatment after 96 h treatment with 128 μg/mL ami in THP-1 NTM model) [2, 4] [%] | In vitro killing (CFU remaining after 96 h treatment with 128 μg/mL ami-in THP-1 NTM model) [3] [CFU] | In vitro killing (additional % CFU killed compared to pretreatment after 96 h treatment with 128 μg/mL ami in THP-1 NTM model) ([3]; vs pretreatment) [%] | In vitro killing (CFU remaining after 96 h treatment with 128 μg/mL streptomycin sulfate in THP-1 NTM model) ([1]; 128 μg/mL streptomycin sulfate) [CFU] | In vitro killing (addtl. % CFU killed compared to pretreatment after 96 h treatment with 128 μg/mL streptomycin sulfate in THP-1 NTM model) [1, 5] [%] | In vitro killing (CFU remaining after 96 h treatment with 128 μg/mL streptomycin sulfate in THP-1 NTM model) ([2]; 128 μg/mL streptomycin sulfate) [CFU] | In vitro killing (addtl. % CFU killed compared to pretreatment after 96 h treatment with 128 μg/mL streptomycin sulfate in THP-1 NTM model) [2, 5] [%] |
| --- | --- | --- | --- | --- | --- | --- | --- | --- | --- | --- |
| NCC[C@H](O)C(=O)N[C@@H]1C[C@H](N)[C@@H](O[C@H]2O[C@H](CN)[C@@H](O)[C@H](O)[C@H]2O)[C@H](O)[C@H]1O[C@H]1O[C@H](CO)[C@@H](O)[C@H](N)[C@H]1O [free ami, amikacin] | 135000 | 50.1 | 135000 | 75 | 214667 | 37.4 |  |  |  |  |
| [H]/N=C(/N)N[C@H]1[C@H](O)[C@@H](O)[C@H](O[C@@H]2O[C@@H](C)[C@](O)(C=O)[C@H]2O[C@@H]2O[C@@H](CO)[C@H](O)[C@@H](O)[C@@H]2NC)[C@@H](N/C(N)=N\[H])[C@@H]1O [free streptomycin sulfate, streptomycin sulfate] |  |  |  |  |  |  | 408000 | 35.8 | 424000 | 27.4 |
